Data reported in patent publication US20230047961A1, “THE CHOLESTEROL-SYNTESIS INTERMEDIATES FOR TREATMENT DEMYELINATING DISORDERS” (priority 2019, published 2023).
“Also recorded” adds a separate entry of the source.

What was measured:
myelinating co-cultures = assay: Myelinating co-culture in vitro (MBP area normalized to SM131 axons); type: cell-based; conditions: 100 μM squalene
Protocol: Myelinating co-cultures were established as described (Thomson, C. E. et al. 2008) with minor modifications. Briefly, E13 embryonic spinal cords were digested in 0.125% Trypsin solution in HBSS (without Ca^+2 and Mg^+2) at 37° C. for 20 min. After stopping the digestion with 1 ml plating media (DMEM, 25% horse serum, 25% HBSS, […] DNAse) the tissue was homogenized by gentle trituration and centrifuged for 5 min. 150,000 cells were plated per poly-L-lysine coated coverslip; 3 coverslips per 35 mm Petri dish. After cell attachment in plating media, differentiation media was added (low glucose DMEM, […] insulin, 10 ng ml^−1 biotin, 50 nM hydrocortisone, 0.5% N1-mix). N1 mix was 1 mg ml^−1 apo-transferrin, 20 mM putrescine, […] progesterone, and 6 mM sodium selenite. 50% media change was performed every 24-48 h with differentiation media. Squalene (100 μM) was added at day 3 to cultures. After 12 days, insulin was removed from differentiation media. […] Axonal (SM131) area and the area with myelin sheaths (MBP) of seven randomly chosen visual fields of myelinating co-cultures (×20 magnification) was measured by automated threshold with Fiji Software (SM131 Otsu, MBP Triangle). Specimens were analyzed on an Axiophot observer.Z1 (Zeiss) equipped with an AxioCam MRm and the ZEN 2012 blue edition software and evaluated with Image J software.

[1] = system: CD11b+ myeloid cells (microglia/macrophages); assay: RT-qPCR expression profile in MACS isolated CD11b+ myeloid cells of EAE mice; type: in vivo, mouse
From the text: Microglia/Macrophages were isolated according to the adult brain dissociation protocol (Miltenyi biotec). Spinal cord was isolated on ice followed by removal of meninges. Antibody labeling steps were done according to the respective antibody Microbead kit protocol (Miltenyi biotec), oligodendrocytes (04, 130-096-670) and microglia (CD11 b, 130-093-636).
(§1) For tissue expression analyses, spinal cord tissue was dissected from ˜Th10-˜L5. RNA was isolated using QIAshredder and RNeasy protocols (Qiagen). Concentration and quality of RNA was evaluated using a NanoDrop spectrophotometer and RNA Nano (Agilent). cDNA was synthesized with Superscript III (Invitrogen) and quantitative PCRs were done in triplicates with the GoTaq qPCR Master Mix (Promega) on a 7500 Fast Real-Time PCR System (Applied Biosystems). Expression values were normalized to the mean of three—five housekeeping genes, HPRT (Hypoxanthin-Phosphoribosyl-Transferase 1) and Rplp0 (60S acidic ribosomal protein P), Rps13 (Ribosomal Protein S13), Gapdh (Glyceraldehyde-3-Phosphate Dehydrogenase), 18S (18S ribosomal RNA) and quantification was done by applying the ΔΔCt method, normalized to age matched untreated controls (set to 1). All primers were intron-spanning.

Plp1-tg mice = assay: Elevated beam test in Plp1-tg mice (Pelizaeus-Merzbacher disease model); type: in vivo, mouse; conditions: 0.5% [v/w] squalene diet between 2 and 12 weeks of age (FIG. 14a)
From the text: (§2) Plp1 transgenic Plp1-tg, line #72 mice (Readhead et al., 1994, Stumpf, Berghoff et al., 2019) harbor three copies of the murine Plp1 gene. Dietary treatment was applied between 2 and 12 weeks of age.
(§3) Dietary supplementation with squalene (0.5% [v/w]).
To assess bilateral sensorimotor coordination that involves connecting white matter structures, elevated beam test (in-house made, MPI of experimental medicine) was applied. Mice were trained to run toward a hiding box on a beam (width 1.5 cm) one week before testing. In one testing session number of slips in a defined 55 cm distance over three repeats was counted. Mean number of slips after three testing sessions (8 weeks, 10 weeks and 12 weeks) was quantified.

[2] = system: MOG35-55 induced EAE animals; assay: Clinical score of MOG35-55 induced EAE animals; type: in vivo, mouse
Protocol: For MOG-EAE, mice purchased from Charles River were immunized subcutaneously with […] myelin oligodendrocyte glycoprotein peptide 35-55 (MOG35-55) in complete Freund's adjuvant (M. tuberculosis at 3.75 mg ml^−1) and i.p. injected twice with 500 ng pertussis toxin. Animals were examined daily and scored for clinical signs of the disease. […] The clinical score was: 0 normal; 0.5 loss of tail tip tone; 1 loss of tail tone; 1.5 ataxia, mild walking deficits (slip off the grid); 2 mild hind limb weakness, severe gait ataxia, twist of the tail causes rotation of the whole body; 2.5 moderate hind limb weakness, cannot grip the grid with hind paw, but able to stay on a upright tilted grid; 3 mild paraparesis, falls down from a upright tiled grid; 3.5 paraparesis of hind limbs (legs strongly affected, but move clearly); 4 paralysis of hind limbs, weakness in forelimbs; 4.5 forelimbs paralyzed; 5 moribund/dead. […] DMHCA (Avanti) was dissolved in corn oil (Sigma) and given therapeutically in chow at a dosage of 8 mg kg^−1. IFNβ1b (Bayer) was administrated by daily intraperitoneal (i.p.) injections 30.000 U per animal.

[3] = system: peripheral inflammatory cells; assay: Flow cytometry of peripheral inflammatory cells per ml blood in EAE; type: in vivo, mouse; conditions: peak of EAE disease (day 16), therapeutic squalene vs normal chow (FIG. 3a-c)
Protocol: (§4) Single-cell suspensions from spinal cords were obtained via mechanical dissociation on a cell strainer. Immune cells were separated over a two-phase Percoll-density gradient (70%/30%). Blood was collected by cardiac puncture in EDTA (80 mM) and single-cell suspension was obtained by centrifugation over lymphocyte separation medium (LSM 1077, PAA). Staining of abTCR/CD4 T cells, abTCR/CD8 T cells and CD45/CD11 b cells (macrophages/microglia) was performed using the following antibodies in a 1:200 dilution:Anti-CD3e (clone 145-2C11), BioLegend; anti-CD4 (clone GK 1.5), BD; anti-CD8 (clone 53-6.7), BD; […]; anti-CD11b (clone M1/70), BioLegend; anti-CD45.2 (clone 104), BioLegend. The addition of Calibrite APC beads (BD) allowed for cell quantification. Flow cytometry was performed using a FACSCalibur operated by Cell Quest software (Becton Dickinson).

[4] = system: spinal cord tissue gene expression; assay: RT-qPCR expression profile in spinal cord lysates of EAE mice; type: in vivo, mouse; conditions: remission phase
Protocol: as §1

[5] = system: inflammatory cells in brain and spinal cord tissue; assay: Flow cytometry of inflammatory cells in brain and spinal cord of Plp1-tg mice; type: in vivo, mouse; conditions: 0.5% [v/w] squalene diet between 2 and 12 weeks of age (FIG. 14b)
Protocol: as §4, §2, §3

[6] = system: lysolecithin induced lesions; assay: Remyelination in lysolecithin induced spinal cord lesions; type: in vivo, mouse; conditions: 14 days post lesion
Protocol: Focal spinal cord demyelinating lesions were induced under MMF anesthesia (1.0 mg kg^−1 midazolam, 0.05 mg kg^−1 medetomidine and 0.02 mg kg^−1 fentanyl) by stereotactic injection of 1 μl lysolecithin (1%, from egg yolk, alpha-lysophosphatidyl-choline, Sigma) into the left and right ventro-lateral funiculus at Th10 of 8-week old animals. The injection was performed at a rate of ˜1 μl min^−1. This procedure created fusiform demyelinating lesions, 5-6 mm in length. At the day of injection, mice were randomly assigned to normal or 0.5% [v/w] squalene supplemented chow for 14 days, after which the animals were killed, and the spinal cord processed for histology. For serum isolation, blood was collected by cardiac puncture, and serum was prepared after 4 h clotting by centrifugation.
Mice were perfused with 4% paraformaldehyde (PFA). Spinal cord tissue was postfixed overnight, embedded in paraffin and cut into […] sections (HMP 110, MICROM). For immunohistological analyses, sections were deparaffinized followed by antigen-retrieval in sodium citrate buffer (0.01 M, pH 6.0). For immunofluorescence, sections were blocked with serum free protein block (Dako). Primary antibodies were diluted in 2% bovine serum albumin (BSA)/PBS and incubated for 48 h followed by fluorophor coupled secondary antibodies. Lesion area (DAPI clustered nuclei), oligodendrocyte cell number (CAll, carbonic anhydrase 2) and myelin positive area (MBP, myelin basic protein) were evaluated.

[7] = system: inflammatory cells in spinal cord tissue; assay: Flow cytometry of inflammatory cells per gram spinal cord in EAE; type: in vivo, mouse; conditions: peak of EAE disease (day 16), therapeutic squalene vs normal chow (FIG. 2)
[8] = acute phase (15 days post immunization), prophylactic squalene vs chow (FIG. 5a)
[9] = prophylactic squalene vs chow fed controls (FIG. 4a)
[10] = prophylactic squalene vs chow fed controls (FIG. 4b)

## CC(C)=CCCC(C)=CCC/C(C)=C/CC/C=C(\C)CC/C=C(\C)CCC=C(C)C (stereo in doubt) [squalene, (6E,10E,14E,18E)-2,6,10,15,19,23-hexamethyltetracosa-2,6,10,14,18,22-hexaene]
Myelinating co-cultures; 21 DIV (FIG. 7)
  MBP positive area normalized to SM131 positive axons: increased MBP positive area
Myelinating co-cultures; 30 DIV (FIG. 7)
  MBP positive area normalized to SM131 positive axons: increased MBP positive area
[1]; [8]
  Expression levels of pro-inflammatory mediator genes such as TNF and IL1β: reduced expression levels
  Expression of anti-inflammatory molecules such as TGFβ1: increased expression
[1]; acute phase, prophylactic squalene vs untreated control (FIG. 5b)
  Expression of cholesterol export genes Abca1 and Apoe: upregulated
Plp1-tg mice
  Clinical disease severity by elevated beam testing (number of slips): high potential to ameliorate clinical disease severity
[2]; prophylactic regimen, 0.5% [v/w] squalene chow from 14 days before immunization (FIG. 1a, 1c)
  Mean clinical score (EAE disease severity): ameliorate disease severity; also recorded: more effective prophylactic effect than the treatment of multiple sclerosis with interferon beta-1b
[2]; therapeutic regimen, 0.5% [v/w] squalene chow from day of disease onset (FIG. 1b)
  Mean clinical score (EAE disease severity): ameliorate disease severity
[2]; therapeutic regimen, squalene 0.03% [v/w] (FIG. 10a, 10b)
  Mean clinical score (EAE disease severity): Disease amelioration was already present
[2]; therapeutic regimen, squalene 0.03% [v/w], 0.5% [v/w] and 5% [v/w] (FIG. 10a)
  Mean clinical score (EAE disease severity), dose comparison: dose depend
[3]
  Number of peripheral immune cells (abTCR/CD4+, abTCR/CD8+, CD45+/CD11b+) per ml blood: did not observe differences
[4]; [9]
  Expression of cholesterol export genes (Abca1, Abcg1, Abcg4, Apoe, Clu): significantly increased expression
  Expression of cholesterol synthesis genes (Hmgc1, Hmgcr, Fdft1, Dhcr24, Cyp51a1, Mvk): significantly increased expression
  Expression of cholesterol uptake genes (Ldlr, Vldlr, Apobr, Lrp1, Lrp2): significantly increased expression
  Expression of genes related to myelination and oligodendrocyte differentiation (Plp1, Car2, Olig2, Pdgfra, Cspg4): significantly increased expression
[4]; [10]
  Expression of pro-inflammatory mediator genes: reduced expression
  Gene expression of the anti-inflammatory molecules 1110 and Tgfb1: significantly increased
[5]
  Number of inflammatory cells per gram brain: reduced number of inflammatory cells
  Number of inflammatory cells per gram spinal cord: reduced number of inflammatory cells
[6]; 0.5% [v/w] squalene chow from day of lesion induction vs control (FIG. 6b)
  Number of CAII positive mature oligodendrocytes within lesion area: strongly increased
[6]; 0.5% [v/w] squalene chow from day of lesion induction vs control (FIG. 6f)
  Degree of MBP positive myelinated axons within lesion area: strongly increased
[6]; 0.5% [v/w] squalene chow vs control (FIG. 6c)
  Size of the lesion area (DAPI positive increased nuclear density): comparable
[7]
  Number of CD11b+/CD45+ myeloid cells per gram spinal cord: reduced numbers
  Number of inflammatory CD4+ T cells per gram spinal cord: reduced numbers
  Number of inflammatory CD8+ T cells per gram spinal cord: reduced numbers
